Reference: paper PMC9046087, “Structural basis of tethered agonism of the adhesion GPCRs ADGRD1 and ADGRF1” (Nature, 2022)
Ends that are not written are not given here.

Experiments:
Assay in all cases: BRET assay using TRUPATH biosensors, Gi activation of ADGRF1
Format in all cases: cell-based
ADGRF1 [1] = target: T1, ADGRF1 (Homo sapiens, UniProt Q5T601, L764A); settings: ADGRF1 L764^5.56bA, n = 3
T1 construct: Flag (N); expressed in transfected cells; host or cells: HEK293F
Summary of the method: (§1)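 G protein activation by synthetic stalk peptides, read as GFP2-to-RLuc8 emission ratio from the fifth of five successive readings. Cells: HEK293F expressing receptor (WT or mutant) with GαsS-RLuc8 or Gαi1-RLuc8 plus Gβ3 and Gγ9-GFP2 (2:1:1:1). Pre-incubated 30 min at 37 °C; substrate coelenterazine 400a.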

ADGRF1 [2] = target: T2, ADGRF1 (Homo sapiens, UniProt Q5T601, Q830A); settings: ADGRF1 Q830^7.49bA
T2 construct: Flag (N); expressed in transfected cells; host or cells: HEK293F
Summary of the method: as §1

ADGRF1 [3] = target: T3, ADGRF1 (Homo sapiens, UniProt Q5T601, G801A); settings: ADGRF1 G801^6.50bA
T3 construct: Flag (N); expressed in transfected cells; host or cells: HEK293F
Summary of the method: as §1

ADGRF1 [4] = target: T4, ADGRF1 (Homo sapiens, UniProt Q5T601, H820A); settings: ADGRF1 H820^7.39bA
T4 construct: Flag (N); expressed in transfected cells; host or cells: HEK293F
Summary of the method: as §1

ADGRF1 [5] = target: T5, ADGRF1 (Homo sapiens, UniProt Q5T601, T810A); settings: ADGRF1 T810^6.59bA
T5 construct: Flag (N); expressed in transfected cells; host or cells: HEK293F
Summary of the method: as §1

ADGRF1 [6] = target: T6, ADGRF1 (Homo sapiens, UniProt Q5T601, M675A); settings: ADGRF1 M675^3.47bA
T6 construct: Flag (N); expressed in transfected cells; host or cells: HEK293F
Summary of the method: as §1

ADGRF1 [7] = target: T7, ADGRF1 (Homo sapiens, UniProt Q5T601, P798A); settings: ADGRF1 P798^6.47bA
T7 construct: Flag (N); expressed in transfected cells; host or cells: HEK293F
Summary of the method: as §1

ADGRF1 [8] = target: T8, ADGRF1 (Homo sapiens, UniProt Q5T601, V748A); settings: ADGRF1 V748^5.40bA
T8 construct: Flag (N); expressed in transfected cells; host or cells: HEK293F
Summary of the method: as §1

ADGRF1 [9] = target: T9, ADGRF1 (Homo sapiens, UniProt Q5T601, N827A); settings: ADGRF1 N827^7.46bA
T9 construct: Flag (N); expressed in transfected cells; host or cells: HEK293F
Summary of the method: as §1

ADGRF1 [10] = target: T10, ADGRF1 (Homo sapiens, UniProt Q5T601, L593A); settings: ADGRF1 L593^1.47bA
T10 construct: Flag (N); expressed in transfected cells; host or cells: HEK293F
Summary of the method: as §1

ADGRF1 [11] = target: T11, ADGRF1 (Homo sapiens, UniProt Q5T601, A683G); settings: ADGRF1 A683^3.55bG
T11 construct: Flag (N); expressed in transfected cells; host or cells: HEK293F
Summary of the method: as §1

ADGRF1 [12] = target: T12, ADGRF1 (Homo sapiens, UniProt Q5T601, F690A); settings: ADGRF1 F690^ICL2A
T12 construct: Flag (N); expressed in transfected cells; host or cells: HEK293F
T12 sequence (Q5T601 20-910 F690A): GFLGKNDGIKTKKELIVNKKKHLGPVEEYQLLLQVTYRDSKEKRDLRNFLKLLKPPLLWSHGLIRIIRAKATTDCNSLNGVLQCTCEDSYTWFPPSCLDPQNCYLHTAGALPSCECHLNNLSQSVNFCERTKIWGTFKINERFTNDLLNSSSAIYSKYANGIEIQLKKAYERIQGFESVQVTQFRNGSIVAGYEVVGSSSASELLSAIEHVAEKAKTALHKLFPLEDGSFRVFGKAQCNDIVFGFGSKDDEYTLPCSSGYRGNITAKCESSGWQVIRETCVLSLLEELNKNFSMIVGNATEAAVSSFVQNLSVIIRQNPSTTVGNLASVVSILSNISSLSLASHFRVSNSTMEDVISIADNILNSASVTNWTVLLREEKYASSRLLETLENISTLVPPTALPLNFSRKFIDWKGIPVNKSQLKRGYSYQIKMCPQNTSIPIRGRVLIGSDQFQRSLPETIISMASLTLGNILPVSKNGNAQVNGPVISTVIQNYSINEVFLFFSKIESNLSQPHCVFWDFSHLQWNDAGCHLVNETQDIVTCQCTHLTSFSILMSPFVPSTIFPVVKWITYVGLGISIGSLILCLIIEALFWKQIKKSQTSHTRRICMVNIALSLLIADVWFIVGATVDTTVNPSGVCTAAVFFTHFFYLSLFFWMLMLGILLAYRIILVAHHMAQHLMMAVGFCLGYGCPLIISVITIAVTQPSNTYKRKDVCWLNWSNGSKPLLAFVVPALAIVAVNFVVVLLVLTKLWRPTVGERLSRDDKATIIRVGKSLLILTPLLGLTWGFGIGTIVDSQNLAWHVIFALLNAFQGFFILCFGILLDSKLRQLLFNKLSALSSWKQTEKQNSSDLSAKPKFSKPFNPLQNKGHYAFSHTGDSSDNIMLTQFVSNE
Summary of the method: as §1

ADGRF1 [13] = target: T13, ADGRF1 (Homo sapiens, UniProt Q5T601, G831A); settings: ADGRF1 G831^7.50bA, n = 3
T13 construct: Flag (N); expressed in transfected cells; host or cells: HEK293F
Summary of the method: as §1

ADGRF1 [14] = target: T14, ADGRF1 (Homo sapiens, UniProt Q5T601, L800A); settings: ADGRF1 L800^6.49bA
T14 construct: Flag (N); expressed in transfected cells; host or cells: HEK293F
Summary of the method: as §1

[15] = n = 3, read-out: pEC50 (mean ± s.e.m.) (converted)

T11 sequence (Q5T601 20-910 A683G): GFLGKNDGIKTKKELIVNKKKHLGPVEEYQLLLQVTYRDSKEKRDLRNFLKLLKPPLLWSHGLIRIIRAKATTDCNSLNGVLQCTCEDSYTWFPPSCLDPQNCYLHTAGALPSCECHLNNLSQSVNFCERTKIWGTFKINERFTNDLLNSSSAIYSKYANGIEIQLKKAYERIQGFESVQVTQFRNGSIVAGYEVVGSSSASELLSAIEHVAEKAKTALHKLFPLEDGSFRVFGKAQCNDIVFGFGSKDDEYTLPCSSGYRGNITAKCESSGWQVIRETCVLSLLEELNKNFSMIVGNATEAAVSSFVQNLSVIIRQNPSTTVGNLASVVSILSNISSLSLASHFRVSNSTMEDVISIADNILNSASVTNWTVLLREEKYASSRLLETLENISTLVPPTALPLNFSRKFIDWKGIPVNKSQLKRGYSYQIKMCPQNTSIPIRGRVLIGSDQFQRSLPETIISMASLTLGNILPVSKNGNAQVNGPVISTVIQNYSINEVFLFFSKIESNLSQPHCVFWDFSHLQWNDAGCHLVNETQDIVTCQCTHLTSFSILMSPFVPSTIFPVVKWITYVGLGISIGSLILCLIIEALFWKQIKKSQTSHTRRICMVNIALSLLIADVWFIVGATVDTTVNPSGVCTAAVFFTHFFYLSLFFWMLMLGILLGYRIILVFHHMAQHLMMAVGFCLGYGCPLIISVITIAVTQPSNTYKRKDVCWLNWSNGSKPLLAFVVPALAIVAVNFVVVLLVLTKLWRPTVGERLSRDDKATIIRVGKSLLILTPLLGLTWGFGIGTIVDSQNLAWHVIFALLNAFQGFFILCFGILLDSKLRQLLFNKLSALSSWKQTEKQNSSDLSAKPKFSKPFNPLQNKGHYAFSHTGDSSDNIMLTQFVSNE
T3 sequence (Q5T601 20-910 G801A): as the sequence (Q5T601 20-910 A683G) above, with G664A, G782A counted along it
T9 sequence (Q5T601 20-910 N827A): as the sequence (Q5T601 20-910 A683G) above, with G664A, N808A counted along it
T7 sequence (Q5T601 20-910 P798A): as the sequence (Q5T601 20-910 A683G) above, with G664A, P779A counted along it
T13 sequence (Q5T601 20-910 G831A): as the sequence (Q5T601 20-910 A683G) above, with G664A, G812A counted along it
T1 sequence (Q5T601 20-910 L764A): as the sequence (Q5T601 20-910 A683G) above, with G664A, L745A counted along it
T2 sequence (Q5T601 20-910 Q830A): as the sequence (Q5T601 20-910 A683G) above, with G664A, Q811A counted along it
T10 sequence (Q5T601 20-910 L593A): as the sequence (Q5T601 20-910 A683G) above, with L574A, G664A counted along it
T6 sequence (Q5T601 20-910 M675A): as the sequence (Q5T601 20-910 A683G) above, with M656A, G664A counted along it
T5 sequence (Q5T601 20-910 T810A): as the sequence (Q5T601 20-910 A683G) above, with G664A, T791A counted along it
T4 sequence (Q5T601 20-910 H820A): as the sequence (Q5T601 20-910 A683G) above, with G664A, H801A counted along it
T8 sequence (Q5T601 20-910 V748A): as the sequence (Q5T601 20-910 A683G) above, with G664A, V729A counted along it
T14 sequence (Q5T601 20-910 L800A): as the sequence (Q5T601 20-910 A683G) above, with G664A, L781A counted along it

In the case of TSFSILMSPFVP [pF1], the EC50 (ADGRF1 [1]) is reported as 1300 nM, the “Emax (mean ± s.e.m.)” value (ADGRF1 [1]) is reported as 86 ± 14 % of WT and the “Emax (mean ± s.e.m.)” value (ADGRF1 [2]; n = 3) is reported as 124 ± 15 % of WT. For the same sequence, the EC50 (ADGRF1 [2]; [15]) was 851 nM, the “Emax (mean ± s.e.m.)” value (ADGRF1 [3]; n = 3) was 127 ± 13 % of WT and the EC50 (ADGRF1 [3]; [15]) was 347 nM. The “Emax (mean ± s.e.m.)” value (ADGRF1 [4]; n = 3) was 126 ± 12 % of WT, the EC50 (ADGRF1 [4]; [15]) was 275 nM and the “Emax (mean ± s.e.m.)” value (ADGRF1 [5]; n = 3) was 81 ± 12 % of WT. For the same sequence, the EC50 (ADGRF1 [5]; [15]) was 562 nM, the “Emax (mean ± s.e.m.)” value (ADGRF1 [6]; n = 3) was 81 ± 13 % of WT and the EC50 (ADGRF1 [6]; [15]) was 427 nM. The “Emax (mean ± s.e.m.)” value (ADGRF1 [7]; n = 3) was 94 ± 17 % of WT, the EC50 (ADGRF1 [7]; [15]) was 912 nM and the “Emax (mean ± s.e.m.)” value (ADGRF1 [8]; n = 3) was 85 ± 17 % of WT. For the same sequence, the EC50 (ADGRF1 [8]; [15]) was 56.2 nM, the “Emax (mean ± s.e.m.)” value (ADGRF1 [9]; n = 3) was 122 ± 13 % of WT and the EC50 (ADGRF1 [9]; [15]) was 389 nM. For the same sequence, the “Emax (mean ± s.e.m.)” value (ADGRF1 [10]; n = 3) was 106 ± 11 % of WT, the EC50 (ADGRF1 [10]; [15]) was 562 nM and the “Emax (mean ± s.e.m.)” value (ADGRF1 [11]; n = 3) was 111 ± 13 % of WT. The EC50 (ADGRF1 [11]; [15]) was 339 nM, the “Emax (mean ± s.e.m.)” value (ADGRF1 [12]; n = 3) was 94 ± 15 % of WT and the EC50 (ADGRF1 [12]; [15]) was 79.4 nM. For the same sequence, the EC50 (ADGRF1 [13]) was 1040 nM, the “Emax (mean ± s.e.m.)” value (ADGRF1 [13]) was 97 ± 15 % of WT and the “Emax (mean ± s.e.m.)” value (ADGRF1 [14]; n = 3) was 105 ± 8 % of WT. It also gave an EC50 (ADGRF1 [14]; [15]) of 257 nM.
